Measured values: patent publication US20220280490A1, “TREATMENT OF FRAGILE X SYNDROME” (HEALX LTD, priority 2019, published 2022)

Experiments:
Format in all cases: in vivo, mouse
Details in all cases: 12 mg/kg ibudilast, compared with WT vehicle
Fmr1 KO2 mice [1] = experiment: Open field (hyperactivity)
Text: (§1) Fmr1 knockout 2 (Fmr1 K02) mice were generated by deletion of the promoter and first exon of Fmr1. The Fmr1 KO2 it is both, protein and mRNA null. In this study we used Fmr1 KO2 and wild-type (WT) littermates generated on a C57BL/6J background and repeatedly backcrossed onto a C57BL/6J background for more than eight generations.
(§2) There were four treatment groups per compound in the study with 10 male mice used per treatment group (all at 8 weeks of age): Group 1: wild-type littermate mice treated with vehicle (WT-Veh), Group 2: Fmr1 KO2 mice treated with vehicle (KO-Veh), Group 3: Fmr1 KO2 mice treated with 12 mg/kg ibudilast (KO-ibudilast).
(§3) For experiments, all mice were tested once in the same apparatus. Prior to testing, mice were placed in the apparatus for some minutes before the experiment. […] We assessed weight loss, fur loss, walking, eyes open, eye discharges and general behavior.
The open-field apparatus was used to test hyperactivity. […] The number of squares entered by the whole body (locomotor activity) was counted. The movement of the mouse around the field was recorded with a video tracking device for 3 min (version NT4.0, Viewpoint).
(§4) Data were analyzed by one-way ANOVA with a Dunnett's multiple comparison post hoc test in which WT Vehicle group was used as reference and compared with all the other groups

Fmr1 KO2 mice [2] = experiment: Nesting
Text: as §1, §2
as §3, with “experiment. The apparatus was cleaned with moist and dry tissues before testing each mouse.” for “experiment.”
The test was performed in individual cages. […] Mice were placed individually into the nesting cages 1 hr. before the dark phase, and the results were assessed the next morning. Nest building was scored on a 5 point scale. […]
as §4

Fmr1 KO2 mice [3] = experiment: Contextual fear conditioning
Text: as §1, §2
For experiments, all mice were tested once in the same apparatus. Prior to testing, mice were placed in the apparatus for some minutes before the experiment. The apparatus was cleaned with moist and dry tissues before testing each mouse. The aim was to create a low but constant background mouse odor for all experimental subjects. Testers were blind to the genotype and treatment during all testing and data analysis. We assessed weight loss, fur loss, walking, eyes open, eye discharges and general behavior. […]
as §4

Fmr1 KO2 mice [4] = experiment: Three-chambered sociability task (social interaction)
Text: as §1, §2
as §3, with “experiment. The apparatus was cleaned with moist and dry tissues before testing each mouse.” for “experiment.”
In the three-chambered sociability task, a subject mouse was evaluated for its exploration of a novel social stimulus (novel mouse). […] The time spent exploring the novel mice was scored as exploration ratio.
as §4

CC(C)C(=O)c1c(C(C)C)nn2ccccc12 [ibudilast, 2-methyl-1-(2-propan-2-ylpyrazolo[1,5-a]pyridin-3-yl)propan-1-one]
fully rescued: open field (hyperactivity, locomotor activity) (Fmr1 KO2 mice [1]) | nesting (nest building score) (Fmr1 KO2 mice [2]) | fear conditioning (freezing response) (Fmr1 KO2 mice [3]) | sociability (exploration ratio) (Fmr1 KO2 mice [4])
